Data reported in US9770026B2, “Substituted pyrimidine compound and uses thereof” (Shenyang Sinochem Agrochemicals R&D Co., Ltd., priority 2012, dated 2017).

Key:
Diamond back moth = test: insecticidal activity against diamond back moth, airbrush spray; format: in vivo
Experimental: Compounds were dissolved in mixed solvent (acetone:methanol=1:1), and diluted to required concentration with water containing 0.1% of tween 80.
Diamond back moth, armyworm, peach aphid and carmine spider mite were used as targets and the method of spraying by airbrush was used for determination of insecticidal biassays.
The method of spraying by airbrush: The cabbage leaves were made into plates of 2 cm diameter by use of punch. A test solution (0.5 ml) was sprayed by airbrush at the pressure of 0.7 kg/cm^2 to both sides of every plate. 10 Second instar larvae were put into the petri-dishes after the leaf disc air-dried and 3 replicates were set for each treatment. Then the insects were maintained in observation room (25° C., 60˜70% R.H.). Scores were conducted and mortalities were calculated after 72 hrs.

armyworm = test: bioactivity test against armyworm, airbrush spray; format: in vivo
[1] = system: Green peach aphids (Myzus Persicae Sulzer); test: bioactivity test against green peach aphid, airbrush foliar spray; format: in vivo; details: for Insecticidal activity against peach aphid (%): contrastive test
Summary of the method: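 Death rate was scored at 48 hrs, held at 25±1 C and 60±5% RH, following airbrush foliar spray (0.5 mL, 10 psi) onto cabbage leaf discs bearing about 15-30 aphids. Test solutions: compound dissolved in 1:1 acetone:methanol, brought to concentration with 0.1% tween 80 water.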

carmine spider mite = test: bioactivity test against carmine spider mite, airbrush spray; format: in vivo
Summary of the method: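 Broadbean seedlings infested with adult mites were sprayed with compound (acetone/methanol stock diluted in 0.1% Tween 80 water) by airbrush at 0.7 kg/cm^2, 0.5 ml. Three replicates were run. Mortality was scored after 72 hrs.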

wheat powdery mildew = test: protectant activity in vivo against wheat powdery mildew
cucumber downy mildew = test: protectant activity in vivo against cucumber downy mildew; details: for control effect against cucumber downy mildew (%): protectant activity
corn rust = test: protectant activity in vivo against corn rust; details: 400 ppm
[2] = 100 ppm, mortality after 72 hrs
[3] = 600 ppm, mortality after 72 hrs
[4] = 10 ppm, death rate after 48 hrs
[5] = 100 ppm, death rate after 48 hrs
[6] = 600 ppm, death rate after 48 hrs

**Q.** Which “Insecticidal activity against diamond back moth (%)” value (Diamond back moth; 10 mg/L) does the source give for `CCc1ncnc(NCCc2ccc(Oc3ccc(C#N)cn3)cc2)c1Cl` [Compound I-255] here?
**A.** 43%

**Q.** What about the “Insecticidal activity against diamond back moth (%)” value (Diamond back moth; 100 mg/L) of the same molecule?
**A.** 100%

**Q.** What about the “Insecticidal activity against diamond back moth (%)” value (Diamond back moth; 600 mg/L) of the same molecule?
**A.** 100%

**Q.** And the “control (test results against diamond back moth)” value (Diamond back moth; [2])?
**A.** 100%

**Q.** And the “control (test results against diamond back moth)” value (Diamond back moth; [3])?
**A.** 100%

**Q.** And the “Insecticidal activity against armyworm (%)” value (armyworm; 10 mg/L)?
**A.** 25%

**Q.** And the “Insecticidal activity against armyworm (%)” value (armyworm; 100 mg/L)?
**A.** 100%

**Q.** And the “Insecticidal activity against armyworm (%)” value (armyworm; 600 mg/L)?
**A.** 100%

**Q.** What about the “control (test results against armyworm)” value (armyworm; 100 ppm, mortality after 72 h) of the same molecule?
**A.** 100%

**Q.** What about the “control (test results against armyworm)” value (armyworm; 600 ppm, mortality after 72 h) of the same molecule?
**A.** 100%

**Q.** And the “control (test results against green peach aphid)” value [1, 4]?
**A.** 100%

**Q.** What about the “control (test results against green peach aphid)” value [1, 5] of the same molecule?
**A.** 100%

**Q.** And the “control (test results against green peach aphid)” value [1, 6]?
**A.** 100%

**Q.** What about the “Insecticidal activity against carmine spider mite (% )” value (shortened to “Insecticidal activity … (% )”) (carmine spider mite; 2.5 mg/L) of the same molecule?
**A.** 72%

**Q.** What about the “Insecticidal activity … (% )” value (carmine spider mite; 5 mg/L) of the same molecule?
**A.** 84%

**Q.** What about the “Insecticidal activity … (% )” value (carmine spider mite; 10 mg/L, contrastive test) of the same molecule?
**A.** 85%

**Q.** What about the “Insecticidal activity … (% )” value (carmine spider mite; 100 mg/L, contrastive test) of the same molecule?
**A.** 100%

**Q.** What about the “Insecticidal activity … (% )” value (carmine spider mite; 600 mg/L, contrastive test) of the same molecule?
**A.** 100%

**Q.** What about the “control against carmine spider mite” value (carmine spider mite; [2]) of the same molecule?
**A.** 100%

**Q.** What about the “control against carmine spider mite” value (carmine spider mite; [3]) of the same molecule?
**A.** 100%

**Q.** What about the “protectant activity against wheat powdery mildew in vivo” value (wheat powdery mildew; 25 ppm) of the same molecule?
**A.** 100%

**Q.** What about the “protectant activity against wheat powdery mildew in vivo” value (wheat powdery mildew; 100 ppm) of the same molecule?
**A.** 100%

**Q.** What about the “protectant activity against wheat powdery mildew in vivo” value (wheat powdery mildew; 400 ppm) of the same molecule?
**A.** 100%

**Q.** And the “protectant activity against cucumber downy mildew in vivo” value (cucumber downy mildew; 25 ppm)?
**A.** 100%

**Q.** What about the “protectant activity against cucumber downy mildew in vivo” value (cucumber downy mildew; 50 ppm) of the same molecule?
**A.** 100%

**Q.** What about the “protectant activity against cucumber downy mildew in vivo” value (cucumber downy mildew; 100 ppm) of the same molecule?
**A.** 100%

**Q.** What about the “protectant activity against cucumber downy mildew in vivo” value (cucumber downy mildew; 400 ppm) of the same molecule?
**A.** 100%

**Q.** What does the source list for `CCc1ncnc(NCCc2ccc(Oc3ccc(C(F)(F)F)cc3)cc2)c1Cl.Cl` [II-19334]?
**A.** control (test results against diamond back moth) (Diamond back moth; [3]): 100%; pest or weed control at 100 ppm (Diamond back moth; 72 h, 100 ppm, mortality after 72 hrs, read-out: control (test results against diamond back moth)): 100%; control (test results against armyworm) (armyworm; 600 ppm, mortality after 72 h): 100%; pest or weed control at 10 µg/mL (armyworm; 72 h, 10 mg/L, read-out: Insecticidal activity against armyworm (%)): 44%; pest or weed control at 100 µg/mL (armyworm; 72 h, 100 mg/L, read-out: Insecticidal activity against armyworm (%)): 84%; pest or weed control at 600 µg/mL (armyworm; 72 h, 600 mg/L, read-out: Insecticidal activity against armyworm (%)): 100%; pest or weed control at 100 ppm (armyworm; 72 h, 100 ppm, mortality after 72 h): 80 to 99%; Insecticidal activity against peach aphid (%) ([1]; 1.25 mg/L): 67%; Insecticidal activity against peach aphid (%) ([1]; 2.5 mg/L): 83%; Insecticidal activity against peach aphid (%) ([1]; 5 mg/L): 96%; Insecticidal activity against peach aphid (%) ([1]; 10 mg/L): 100%; Insecticidal activity against peach aphid (%) ([1]; 100 mg/L): 100%; Insecticidal activity against peach aphid (%) ([1]; 600 mg/L): 100%; control (test results against green peach aphid) [1, 4]: 100%; control (test results against green peach aphid) [1, 5]: 100%; control (test results against green peach aphid) [1, 6]: 100%; pest or weed control at 2.5 ppm ([1]; Myzus persicae, foliar, 48 h, 2.5 ppm, death rate after 48 hrs): 80 to 99%; Insecticidal activity against carmine spider mite (% ) (carmine spider mite; 2.5 mg/L): 87%; Insecticidal activity against carmine spider mite (% ) (carmine spider mite; 5 mg/L): 100%; Insecticidal activity against carmine spider mite (% ) (carmine spider mite; 10 mg/L, contrastive test): 100%; Insecticidal activity against carmine spider mite (% ) (carmine spider mite; 100 mg/L, contrastive test): 100%; Insecticidal activity against carmine spider mite (% ) (carmine spider mite; 600 mg/L, contrastive test): 100%; control against carmine spider mite (carmine spider mite; 10 ppm, mortality after 72 hrs): 100%; control against carmine spider mite (carmine spider mite; [2]): 100%; control against carmine spider mite (carmine spider mite; [3]): 100%; pest or weed control at 2.5 ppm (carmine spider mite; Tetranychus cinnabarinus, 72 h, 2.5 ppm, mortality after 72 hrs): 80 to 99%; pest or weed control at 5 ppm (carmine spider mite; Tetranychus cinnabarinus, 72 h, 5 ppm, mortality after 72 hrs): 100%; protectant activity against corn rust in vivo (corn rust): 100%; protectant activity against wheat powdery mildew in vivo (wheat powdery mildew; 25 ppm): 100%; protectant activity against wheat powdery mildew in vivo (wheat powdery mildew; 100 ppm): 100%; protectant activity against wheat powdery mildew in vivo (wheat powdery mildew; 400 ppm): 100%; pest or weed control at 1.6 µg/mL (wheat powdery mildew; Triticum aestivum, 168 h, read-out: control effect against wheat powdery mildew (%), 1.6 mg/L, protectant activity): 60%; pest or weed control at 6.25 µg/mL (wheat powdery mildew; Triticum aestivum, 168 h, read-out: control effect against wheat powdery mildew (%), 6.25 mg/L, protectant activity): 100%; pest or weed control at 25 µg/mL (wheat powdery mildew; Triticum aestivum, 168 h, read-out: control effect against wheat powdery mildew (%), 25 mg/L, protectant activity): 100%; pest or weed control at 100 µg/mL (wheat powdery mildew; Triticum aestivum, 168 h, read-out: control effect against wheat powdery mildew (%), 100 mg/L, protectant activity): 100%; pest or weed control at 400 µg/mL (wheat powdery mildew; Triticum aestivum, 168 h, read-out: control effect against wheat powdery mildew (%), 400 mg/L, protectant activity): 100%; pest or weed control at 6.25 ppm (wheat powdery mildew; Triticum aestivum, 168 h, read-out: protectant activity against wheat powdery mildew in vivo, 6.25 ppm): 100%

**Q.** How did the “control (test results against diamond back moth)” value (Diamond back moth; [3]) turn out when `CCc1ncnc(NCCc2ccc(Oc3ccc(Cl)cc3)nc2)c1Cl` [III-187] was run?
**A.** 100%

**Q.** And the “Insecticidal activity against armyworm (%)” value (armyworm; 10 mg/L)?
**A.** 95%

**Q.** And the “Insecticidal activity against armyworm (%)” value (armyworm; 100 mg/L)?
**A.** 100%

**Q.** What about the “Insecticidal activity against armyworm (%)” value (armyworm; 600 mg/L) of the same molecule?
**A.** 100%

**Q.** What about the “control (test results against armyworm)” value (armyworm; 100 ppm, mortality after 72 h) of the same molecule?
**A.** 100%

**Q.** What about the “control (test results against armyworm)” value (armyworm; 600 ppm, mortality after 72 h) of the same molecule?
**A.** 100%

**Q.** What about the “Insecticidal activity against peach aphid (%)” value ([1]; 10 mg/L) of the same molecule?
**A.** 100%

**Q.** What about the “Insecticidal activity against peach aphid (%)” value ([1]; 100 mg/L) of the same molecule?
**A.** 100%

**Q.** And the “Insecticidal activity against peach aphid (%)” value ([1]; 600 mg/L)?
**A.** 100%

**Q.** And the “control (test results against green peach aphid)” value [1, 4]?
**A.** 100%

**Q.** And the “control (test results against green peach aphid)” value [1, 5]?
**A.** 100%

**Q.** What about the “control (test results against green peach aphid)” value [1, 6] of the same molecule?
**A.** 100%

**Q.** And the “control against carmine spider mite” value (carmine spider mite; [2])?
**A.** 100%

**Q.** And the “control against carmine spider mite” value (carmine spider mite; [3])?
**A.** 100%

**Q.** And the “protectant activity against wheat powdery mildew in vivo” value (wheat powdery mildew; 400 ppm)?
**A.** 100%

**Q.** What about the “control effect against cucumber downy mildew (%)” value (“control effect … (%)” below) (cucumber downy mildew; 6.25 mg/L) of the same molecule?
**A.** 100%

**Q.** What about the “control effect … (%)” value (cucumber downy mildew; 12.5 mg/L) of the same molecule?
**A.** 100%

**Q.** And the “control effect … (%)” value (cucumber downy mildew; 25 mg/L)?
**A.** 100%

**Q.** What about the “control effect … (%)” value (cucumber downy mildew; 50 mg/L) of the same molecule?
**A.** 100%

**Q.** And the “control effect … (%)” value (cucumber downy mildew; 100 mg/L)?
**A.** 100%

**Q.** And the “control effect … (%)” value (cucumber downy mildew; 400 mg/L)?
**A.** 100%

**Q.** And the “protectant activity against cucumber downy mildew in vivo” value (cucumber downy mildew; 6.25 ppm)?
**A.** 100%

**Q.** And the “protectant activity against cucumber downy mildew in vivo” value (cucumber downy mildew; 12.5 ppm)?
**A.** 100%

**Q.** And the “protectant activity against cucumber downy mildew in vivo” value (cucumber downy mildew; 25 ppm)?
**A.** 100%

**Q.** What about the “protectant activity against cucumber downy mildew in vivo” value (cucumber downy mildew; 50 ppm) of the same molecule?
**A.** 100%

**Q.** And the “protectant activity against cucumber downy mildew in vivo” value (cucumber downy mildew; 100 ppm)?
**A.** 100%

**Q.** And the “protectant activity against cucumber downy mildew in vivo” value (cucumber downy mildew; 400 ppm)?
**A.** 100%
